Data reported in publication PMC7435868, “Structure-Based Virtual Screening, Synthesis and Biological Evaluation of Potential FAK-FAT Domain Inhibitors for Treatment of Metastatic Cancer” (Molecules, 2020).

What was measured:
Format in all cases: cell-based, human
[1] = system: T47D; assay: Cell viability assay (CellTiter Glo), T47D; conditions: Homo sapiens, T47D, 72 h, 72 h incubation, mean of independent triplicate experiments, read-out: In vitro anti-proliferative activity IC50, T47D ER+ PR+/- HER-
Protocol: (§1) The antiproliferative activity of compound I as well as its newly synthesised analogues (5a–i) was evaluated in vitro against the three human breast cancer cell lines MDA-MB-231 (TNBC), T47D (ER^+, HER^−), and BT474 (ER^+, HER^+) as well as a human pancreatic cancer cell line MIAPaCa2. The seeding of the corresponding cell lines started one day before incubation, which lasted for 72 h with the different concentrations of the tested compounds. CellTiter Glo reagent (25 μL) was added to the cell plate. The luminescence was analysed after 10 min using a PerkinElmer Envision instrument. The test compounds were used at ten different triplicate concentrations in half log increments up to 100 μM.

[2] = system: BT474; assay: Cell viability assay (CellTiter Glo), BT474; conditions: Homo sapiens, BT-474, 72 h, 72 h incubation, mean of independent triplicate experiments, read-out: In vitro anti-proliferative activity IC50, BT474 ER+ PR+/- HER+
Protocol: as §1

[3] = system: MDA-MB-231; assay: Preliminary in vitro profiling of virtual hits
From the text: Approximately 210,000 small molecules from the SPECS virtual library of compounds were imported, rendered, and minimised using a MMFF94x force field and run in a virtual screening simulations programme using Glide SP within Maestro software (Glide, version 9.5, Schrödinger; http://www.schrodinger.com). These compounds underwent four stages of filtration including prefiltration of the non-drug-like compounds in accordance with Lipinski’s rules and excluding chemically unstable and potentially toxic groups. This was followed by high throughput virtual screening (HTVS), standard precision virtual screening (SPVS) and extra precision virtual screening (XPVS). Each compound was positioned in the chosen pocket, which was made up of the area surrounding the three amino acids Asp 1036, Ser 910, and Lys 1032 within a 12 A° radius and scored for electrostatic and van der Waals interactions as implemented in the Schrodinger virtual screening package (version 9.5). […] These 25 hits underwent preliminary in vitro profiling in the metastatic triple negative breast cancer (TNBC) cell line (MDA-MB-231) for antiproliferative and antimigratory properties.

## CC(C)(C)c1ccc(C(CN)c2ccc(Cl)cc2)cc1 (stereo not drawn) [Compound I]
[1]
  IC50: 6.71 µM
[2]
  IC50: 2.67 µM
[3]
  Antiproliferative and antimigratory properties (preliminary profiling): low micromolar antiproliferative and antimigratory properties exceeding those of chloropyramine (C4)
